pIC50: −log10 of the molar value.
Tests used:
[1] = biological target: T1, Biot-Hif-1α^786-826/GST-p300^323/423 (Homo sapiens, UniProt Q09472); assay: Primary biochemical assay (DELFIA fluorescence) for inhibition of the Hif-1α/p300 interaction; type: binding; settings: 10 concentrations from 90 μM to 0.178 μM, 1 h at 25° C.
T1 construct: the p300 region ranging from amino acids 323 to 423; fragment corresponding to C-terminal 786-826 amino acids; host or cells: E. coli BL21 (DE3), vector pGEX-4T-1
T1 sequence (Q09472 323-423): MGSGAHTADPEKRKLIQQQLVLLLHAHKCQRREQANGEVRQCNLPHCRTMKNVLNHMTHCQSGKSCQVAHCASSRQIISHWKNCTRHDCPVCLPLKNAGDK
Method: Primary Biochemical Assay for the Inhibition of Biot-Hif-1α^786-826/GST-p300^323/423
The compounds were evaluated for their ability to inhibit the interaction between Hif-1α and p300 using a fluorescence assay (DELFIA™). The procedure described by Freedman S J at al., Nature Structural Biology 2003, 10 (7), 504-512 was suitably modified.
The human biotinylated Hif-1α fragment corresponding to C-terminal 786-826 amino acids (Biotinylated Hif-1α^786-826) was obtained from AnaSpec Inc (San Jose, Calif., USA) and used without further purifications.
A construct expressing the GST-p300^323-423 fragment was transformed in the BL21 (DE3) strain of E. coli. Said construct was obtained by cloning in the expression vector pGEX-4T-1 (Amersham No. 27-45-80-01) the DNA sequence which encodes for the p300 region ranging from amino acids 323 to 423; the DNA sequence was obtained by PCR (Polymerase Chain Reaction). The protein region was induced with 1 mM isopropyl-1-tio-β-D-galactopyranoside (IPTG). The bacteria were lysed by sonication in the presence of a suitable buffer (50 mM Tris*HCl pH 8.00, 100 mM NaCl, 0.1 mM ZnSO4, 1 mM DTT, 0.1 mg/ml lysozyme and a tablet of Complete EDTA-free Protease Inhibitor Cocktail Tablets (Roche, catalogue number 1 873 580)) and the GST fusion protein present in the soluble fraction was purified on a Glutathione-Sepharose 4B resin (Amersham Biosciences; no. 27-4574-01). The protein final concentration was determined according to Bradford with the Biorad assay (Bradford M., Anal. Biochem., 72, 248, (1976)). The purity of the sample was evaluated by SDS-PAGE. Samples were stored at −80° C. in 50% glycerol.
The assay was carried out using NUNC Maxisorp 96 wells plates as follows.
C96 NUNC Maxisorp plates (from Nunc, product No. 446612) were incubated overnight with streptavidin (Sigma; product No. S 4762) to a final concentration of 1 μg/ml in PBS buffer (Phosphate Buffered Saline 10 mM sodium phosphate, 150 mM sodium chloride pH 7.4). Each well was subsequently washed with 3×300 μl of TBST buffer (50 mM Tris*HCl pH 8.0, 150 mM NaCl, 0.05% (v/v) Tween 20). Each well was then added with 100 μl of a 10 nM solution of biotinylated Hif-1α^786-826 in TBSB (50 mM Tris-HCl pH 8.0, 150 mM NaCl, 5% (w/v) BSA (Sigma, product No. A 2153)) and incubated for 1 h at 25° C. In the last row of each plate, only the TBSB buffer was added. Each well was subsequently washed three times with 300 μl of TBST buffer. The thus prepared plate represented the assay plate.
Separately, the plate (daughter plate) containing in each well 10 μl of each test compound dissolved in DMSO to a concentration of 10 μM was prepared. This plate was added with 100 μl of a 111 pM solution of GST-p300^323-423 diluted in the incubation buffer (TBSB added with 0.1% (v/v) Tween 20, 0.5 mM DTT, 10 μM ZnCl2) and the whole was mixed. 100 μl of the mixture contained in the daughter plate were immediately transferred to the assay plate.
Each daughter plate was prepared with 80 different compounds at a 10 μM concentration, safe for the two last well rows, wherein each well was added with 10 μl of DMSO. These two rows represented the positive (row 11, +Hif-1) and negative (row 12, −Hif-1) controls.
After incubation for 1 h at 25° C., each well was washed with 3×300 μl of TBST buffer (50 mM Tris-HCl pH 8.0. 150 mM NaCl, 0.05% (v/v) Tween 20). Each well was then added with 60.8 ng of an europium-labelled anti-GST antibody (DELFIA Eu-N1 labeled; Perkin Elmer; product no. A D 0251) dissolved in 100 μl of TBST buffer containing 10 μM ZnCl2. After incubation for 1 h at room temperature, each well was washed with 3×300 μl of TBST buffer, then 100 μl of signal amplification solution (Enhancement Solution, Perkin Elmer product No. 1244-105) were added.
The plates were then read using a FUSION alpha-FP-HT reader (Perkin Elmer) in fluorescence mode for time resolution.
The activity of the compounds was calculated as follows. […]

[2] = test system: VEGF promoter (rat VEGF gene promoter, Hep3B-VEGFLuciferase cells); assay: Luciferase assay in Hep3B-VEGFLuciferase cells, deferoxamine-induced hypoxia; type: cell-based; settings: Homo sapiens, deferoxamine about 100 μM, 18-20 hours, 50% inhibition of the luciferase signal
Method: (§1) The compounds having inhibitory activity in the Hif-1α/p300 assay described above were evaluated using a cellular test on genetically modified human hepatocarcinoma Hep3B cells (Hep3B-VEGFLuciferase) in order to stably express a vector in which the Open Reading Frame of firefly Luciferase was under the control of the rat VEGF gene promoter.
Hif-1 Induction using deferoxamine (which induces hypoxia) induces luciferase transcription through activation of the VEGF promoter, which in turn causes an increase in luciferase activity, which can be measured with a commercially available kit. The compounds interfering with the Hif-1α/p300 complex inhibit Hif-dependent luciferase activation, resulting in a reduction of luciferase activity. This assay therefore allows to evaluate the activity of the compounds towards the VEGF promoter, which is essential to VEGF production and the subsequent tumor angiogenesis.
(§2) The Hep-3B-VEGFLuciferase cell line was obtained according to the following procedure.
(§3) Human hepatocarcinoma cells Hep-3B (ATCC reference No. HB-8064) were seeded onto 6 wells plates at a concentration of 2.5×10^5 cells/well in 2 ml DMEM/10% FCS and the following day were transfected using Fugene 6 (Roche Biochemicals®). In each well, the transfection mixtures contained 6 μl of the transfection reagent Fugene 6, 1 μg of the pxp2-VEGF-luciferase reporter plasmid (VEGF rat promoter, NCBI GenBank No. of accession U22373, Levy et al., J. Biol. Chem. 270 (22), 13333-13340. 1995), and 10 ng of pcDNA3.1(+)plasmid (INVITROGEN) which makes cells resistant to neomycin. Transfection was carried out according to the manufacturer's instructions.
(§4) A suitable cell population (phenotypically resistant to neomycin) was selected by means of a cloning approach based on the “dilution limit” procedure (Sambrook J., Fritsch E. F. and Maniatis T. (1989) Molecular Cloning, A Laboratory Manual; Cold Spring Harbor Laboratories). The subsequent assays for Luciferase expression/activity “Luciferase assay” and for the quantification of secreted VEGF in the supernatant “ELISA secreted VEGF test”) were carried out with the stably transfected selected cells.
(§5) The following experimental protocol was used:
(§6) Day 1. Hep-3B-VEGF Luciferase cells were seeded onto 96-wells “blank” plates (a product by Greiner) at a density of 1×10^4 cells/well/125 μl of medium, then left to adhere overnight in thermostat (37° C./5% CO2).
(§7) Day 2. 75 μl of “3.2× working solutions” of compound (previously prepared in culture medium so that the DMSO concentration is 1.6% v/v) were added to the cells (partial volume/well=200 μl, partial concentration of compound=1.2×, partial concentration of DMSO=0.6%). After 1 hour incubation in thermostat, hypoxia was induced chemically by addition of 40 μl/well of a 6× (600 μM) stock solution of deferoxamine (final volume/well=240 μl, final concentration of compound=1×, final concentration of DMSO=0.5%, final concentration of deferoxamine=1×≈100 μM). The plates were then thermostated for further 18-20 hours.
(§8) Day 3. The “Luciferase assay” and the “secreted VEGF ELISA test” were carried out as follows.
Quantification of the expression of the Luciferase reporter gene was performed by means of the Bright Glo Reagent (Promega). After removing the supernatant and washing once with PBS, 40 μl/well of Bright Glo Reagent were added to blank 96-well plates with Hep3B/VEGF-Luciferase cells. The expression levels of the reporter gene were determined by reading the plates with a luminometer.
(§9) IC50 values (concentration of the compound that causes 50% inhibition of the luciferase signal or 50% reduction of secreted VEGF) for some compounds of the invention are reported in table 2: […]

[3] = test system: secreted VEGF (Hep3B-VEGFLuciferase cells); assay: Secreted VEGF ELISA test in Hep3B-VEGFLuciferase cells, deferoxamine-induced hypoxia; type: cell-based; settings: Homo sapiens, supernatant, deferoxamine about 100 μM, 18-20 hours, 50% reduction of secreted VEGF
Method: as §1, §2, §3, §4, §5, §6, §7, §8
“Secreted VEGF ELISA Test”
Quantification of secreted VEGF was performed using the kit “DuoSet Elisa Development System human VEGF” kit (R&D Systems). 100 μl/well of the supernatant from the “blank” 96 well-plates with the cells of the Hep3B/VEGF Luciferase clone were transferred into transparent 96-well plates of (Maxisorp) and assayed according to the indications of the kit manufacturer.
as §9

Row | Structure (SMILES) | pIC50 [1] | pIC50 [2] | pIC50 [3]
1 | CCOC(=O)c1c2c(n(C)c1CO)C(=O)C(=O)c1ccc(Br)cc1-2 [12(a), Ethyl 8-bromo-2-hydroxymethyl-3-methyl-4,5-dioxo-4,5-dihydro-3H-benzo[e]indole-1-carboxylate] | 4.85 | 6.49 | 5.69
2 | CCOC(=O)c1c2c(n(C)c1CN(CC)CC)C(=O)C(=O)c1ccc(Br)cc1-2 [12(b), Ethyl 8-bromo-2-diethylaminomethyl-3-methyl-4,5-dioxo-4,5-dihydro-3H-benzo[e]indole-1-carboxylate] | 4.88 | 6.49 | 5.69
3 | CCOC(=O)c1c2c(n(Cc3ccccc3)c1C)C(=O)C(=O)c1ccc(Br)cc1-2 [12(c), Ethyl 8-bromo-2-methyl-3-benzyl-4,5-dioxo-4,5-dihydro-3H-benzo[e]indole-1-carboxylate] | 5.14 | 5.97 | 4.84
4 | CCOC(=O)c1c(C)[nH]c2c1-c1cc(Br)ccc1C(=O)C2=O [Example 1, Ethyl 8-bromo-2-methyl-4,5-dioxo-4,5-dihydro-3H-benzo[e]indole-1-carboxylate] | 4.88 | 6.35 | 5.24
5 | CCOC(=O)c1c2c(n(C)c1C)C(=O)C(=O)c1ccc(Br)cc1-2 [Example 3, Ethyl 8-bromo-2,3-dimethyl-4,5-dioxo-4,5-dihydro-3H-benzo[e]indole-1-carboxylate] | 5.48 | 6.33 | 4.97
6 | CCOC(=O)c1c2c(n(C)c1CN1CCOCC1)C(=O)C(=O)c1ccc(Br)cc1-2 [Example 4, Ethyl 8-bromo-3-methyl-2-(morpholin-4′-yl)methyl-4,5-dioxo-4,5-dihydro-3H-benzo[e]indole-1-carboxylate] | 4.96 | 5.96 | 5.32
7 | CCOC(=O)c1c2c(n(C)c1CN(C)C)C(=O)C(=O)c1ccc(Br)cc1-2 [Example 5, Ethyl 8-bromo-2-dimethylaminomethyl-3-methyl-4,5-dioxo-4,5-dihydro-3H-benzo[e]indole-1-carboxylate] | 5.82 | 6.59 | 5.92
8 | CCOC(=O)c1c2c(n(C)c1CNC(C)C)C(=O)C(=O)c1ccc(Br)cc1-2 [Example 6, Ethyl 8-bromo-2-isopropylaminomethyl-3-methyl-4,5-dioxo-4,5-dihydro-3H-benzo[e]indole-1-carboxylate] | 5.04 | 6.52 | 6.52
9 | CCOC(=O)c1c2c(n(CC(=O)OC(C)(C)C)c1C)C(=O)C(=O)c1ccc(Br)cc1-2 [Example 7, Ethyl 8-bromo-3-tert-butoxycarbonylmethyl-2-methyl-4,5-dioxo-4,5-dihydro-3H-benzo[e]indole-1-carboxylate] | 4.83 | 5.80 | 5.03
10 | CCOC(=O)c1c2c(n(CC(=O)O)c1C)C(=O)C(=O)c1ccc(Br)cc1-2 [Example 8, Ethyl 8-bromo-3-carboxymethyl-2-methyl-4,5-dioxo-4,5-dihydro-3H-benzo[e]indole-1-carboxylate] | 4.48 | < 4.90 | < 4.90
11 | CCOC(=O)c1c2c(n(CC(N)=O)c1C)C(=O)C(=O)c1ccc(Br)cc1-2 [Example 9, Ethyl 8-bromo-3-carbamoylmethyl-2-methyl-4,5-dioxo-4,5-dihydro-3H-benzo[e]indole-1-carboxylate] | 5.02 | 6.22 | < 4.90

Source: patent US20090036441A1, “Indole Derivatives With Antitumor Activity” (Cell Therapeutics Europe S.R.L., priority 2004, published 2009)
